This note sets out measurements from PubChem BioAssay AID1259407 (Chemical Carcinogenesis Research Information System (CCRIS), 2018).

Active and inactive are the calls of the source. How the calls were made is not given here.

The series deals with CCRIS mutagenicity, Ames/micronucleus/aberration tests. Kind of series: CCRIS mutagenicity studies.
The mark [1] stands for this setting: Test System: AMES SALMONELLA TYPHIMURIUM, Strain/Indicator: TA98, Metabolic Activation: RAT, LIVER, S-9, AROCLOR 1254, Method: PREINCUBATION
Where [2] appears, read: Test System: AMES SALMONELLA TYPHIMURIUM, Strain/Indicator: TA100, Metabolic Activation: NONE, Method: PREINCUBATION
Where [3] appears, read: Test System: AMES SALMONELLA TYPHIMURIUM, Strain/Indicator: TA100, Metabolic Activation: RAT, LIVER, S-9, AROCLOR 1254, Method: PREINCUBATION
Setting [4] is: Test System: AMES SALMONELLA TYPHIMURIUM, Strain/Indicator: TA102, Metabolic Activation: NONE, Method: PREINCUBATION
Where [5] appears, read: Test System: AMES SALMONELLA TYPHIMURIUM, Strain/Indicator: TA102, Metabolic Activation: RAT, LIVER, S-9, AROCLOR 1254, Method: PREINCUBATION
Setting [6] is: Test System: AMES SALMONELLA TYPHIMURIUM, Strain/Indicator: TA98, Metabolic Activation: NONE, Method: STANDARD PLATE.
Setting [7] is: Test System: AMES SALMONELLA TYPHIMURIUM, Strain/Indicator: TA100, Metabolic Activation: NONE, Method: STANDARD PLATE.
Setting [8] is: Test System: AMES SALMONELLA TYPHIMURIUM, Strain/Indicator: TA100, Metabolic Activation: RAT, LIVER, S-9, AROCLOR 1254 (10% OR 20%), Method: STANDARD PLATE.

For `Oc1ccc(O)c(O)c1`, the mutagenic call is “active; positive (ploidy changes)” (End Point: IN VITRO CHROMOSOMAL ABERRATIONS, Test System: HUMAN PERIPHERAL LYMPHOCYTES, Metabolic Activation: NONE); “active; positive (ploidy); greater effects on certain chromosomes” (End Point: IN VITRO CHROMOSOMAL ABERRATIONS, Test System: HUMAN PERIPHERAL LYMPHOCYTES, Metabolic Activation: NONE, Method: FISH); “active; positive (ploidy changes in chromosomes 7 and 8)” (End Point: IN VITRO CHROMOSOMAL ABERRATIONS, Test System: HUMAN PERIPHERAL LYMPHOCYTES, Metabolic Activation: NONE, Method: FISH - DUAL COLOR PROBES); “inactive; negative for translocations” (End Point: IN VITRO CHROMOSOMAL ABERRATIONS, Test System: HUMAN PERIPHERAL LYMPHOCYTES, Metabolic Activation: NONE, Method: FISH- DUAL COLOR PROBES); “active; positive” (End Point: IN VITRO MICRONUCLEUS, Test System: HUMAN PERIPHERAL LYMPHOCYTES, Metabolic Activation: NONE, Method: FISH - DUAL COLOR PROBES); “inactive; negative” (Test System: AMES SALMONELLA TYPHIMURIUM, Strain/Indicator: TA97, Metabolic Activation: RAT, LIVER, S-9, AROCLOR 1254, Method: PREINCUBATION). Moreover, the mutagenic call runs as follows: (Test System: AMES SALMONELLA TYPHIMURIUM, Strain/Indicator: TA97, Metabolic Activation: RAT, LIVER, S-9, PHENOBARBITAL, Method: PREINCUBATION) “inactive; negative”; under setting [1], “inactive; negative”; (Test System: AMES SALMONELLA TYPHIMURIUM, Strain/Indicator: TA98, Metabolic Activation: RAT, LIVER, S-9, PHENOBARBITAL, Method: PREINCUBATION) “inactive; negative”; (Test System: AMES SALMONELLA TYPHIMURIUM, Strain/Indicator: TA100, Metabolic Activation: NONE, Method: FLUCTUATION TEST) “inactive; negative”; under setting [2], “inactive; negative”; under setting [3], “inactive; negative”. Besides, the mutagenic call is “active; positive” (Test System: AMES SALMONELLA TYPHIMURIUM, Strain/Indicator: TA100, Metabolic Activation: RAT, LIVER, S-9, PCB, Method: FLUCTUATION TEST); “inactive; negative” (Test System: AMES SALMONELLA TYPHIMURIUM, Strain/Indicator: TA100, Metabolic Activation: RAT, LIVER, S-9, PHENOBARBITAL, Method: PREINCUBATION); “inactive; negative” under setting [4]; “inactive; negative” under setting [5]; “inactive; negative” (Test System: AMES SALMONELLA TYPHIMURIUM, Strain/Indicator: TA104, Metabolic Activation: NONE, Method: PREINCUBATION); “inactive; negative” (Test System: AMES SALMONELLA TYPHIMURIUM, Strain/Indicator: TA1535, Metabolic Activation: NONE, Method: PREINCUBATION). The mutagenic call (Test System: AMES SALMONELLA TYPHIMURIUM, Strain/Indicator: TA1535, Metabolic Activation: RAT, LIVER, S-9, AROCLOR 1254, Method: PREINCUBATION) is “inactive; negative” and the mutagenic call (Test System: CHINESE HAMSTER V-79, Strain/Indicator: V-79/6-THIOGUANINE, Metabolic Activation: NONE) is “active; positive”.
On to `Clc1ccc2cc3ccccc3cc2c1`, for which the mutagenic call is “inactive; negative” under setting [6]; “active; positive” (Test System: AMES SALMONELLA TYPHIMURIUM, Strain/Indicator: TA98, Metabolic Activation: RAT, LIVER, S-9, AROCLOR 1254, Method: STANDARD PLATE); “inactive; negative” under setting [7]; “inactive; negative” (Test System: AMES SALMONELLA TYPHIMURIUM, Strain/Indicator: TA100, Metabolic Activation: RAT, LIVER, S-9, AROCLOR 1254, Method: STANDARD PLATE).
With `C1=CC2OC2c2ncccc21` (stereo not drawn), the mutagenic call reads like this: under setting [7], “inactive; negative”; under setting [8], “active; positive”.
For `CN1C(=O)[C@]23CC4=CC=C[C@H](O)[C@H]4N2C(=O)[C@@]1(CO)SS3`, the mutagenic call is, setting by setting: under setting [6], “inactive; negative”; (Test System: AMES SALMONELLA TYPHIMURIUM, Strain/Indicator: TA98, Metabolic Activation: RAT LIVER S-9 MIX, Method: STANDARD PLATE) “inactive; negative”; (Test System: AMES SALMONELLA TYPHIMURIUM, Strain/Indicator: TA98, Metabolic Activation: S-9, Method: STANDARD PLATE) “inactive; negative”; under setting [7], “inactive; negative”; (Test System: AMES SALMONELLA TYPHIMURIUM, Strain/Indicator: TA100, Metabolic Activation: RAT LIVER S-9 MIX, Method: STANDARD PLATE) “inactive; negative”; (Test System: AMES SALMONELLA TYPHIMURIUM, Strain/Indicator: TA100, Metabolic Activation: S-9, Method: STANDARD PLATE) “inactive; negative”. The mutagenic call runs as follows: (Test System: AMES SALMONELLA TYPHIMURIUM, Strain/Indicator: TA102, Metabolic Activation: NONE, Method: STANDARD PLATE) “inactive; negative”; (Test System: AMES SALMONELLA TYPHIMURIUM, Strain/Indicator: TA102, Metabolic Activation: RAT LIVER S-9 MIX, Method: STANDARD PLATE) “inactive; negative”; (Test System: AMES SALMONELLA TYPHIMURIUM, Strain/Indicator: TA1537, Metabolic Activation: NONE, Method: STANDARD PLATE) “inactive; negative”; (Test System: AMES SALMONELLA TYPHIMURIUM, Strain/Indicator: TA1537, Metabolic Activation: S-9, Method: STANDARD PLATE) “inactive; negative”.
As to `O=[N+]([O-])c1ccc2c3c(cccc13)-c1cc3ccccc3cc1-2`, the mutagenic call under setting [6] was “active; positive”.
Turning to `C1=CC2OC2c2cccnc21` (stereo not drawn), the mutagenic call is “inactive; negative” under setting [7] and “inactive; negative” under setting [8].
As for `CC(=O)CCC(C)=O`, the mutagenic call is, setting by setting: (Test System: AMES SALMONELLA TYPHIMURIUM, Strain/Indicator: TA98, Metabolic Activation: NONE, Method: PREINCUBATION) “inactive; negative”; under setting [1], “inactive; negative”; under setting [2], “inactive; negative”; under setting [3], “inactive; negative”; under setting [4], “inactive; negative”; under setting [5], “inactive; negative”.
On to `Cc1ccc2cc3c4c(ccc3c3c2c1C[C@H]3O)[C@H](O)[C@@H](O)C=C4`, for which the mutagenic call (Test System: CHINESE HAMSTER V-79, Strain/Indicator: V-79/8-AZAGUANINE, Metabolic Activation: RAT, LIVER, S-9, AROCLOR, Method: STANDARD PLATE) was “active; positive”.
For the compound `O=C(O)c1ccco1`, the mutagenic call was “inactive; negative” under setting [6] and “inactive; negative” under setting [7].
